This passage reports TGI and GI50 results from PubChem BioAssay (NCI).

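How tested: cells in 96-well plates exposed to compound for 48 hours at five concentrations. GI50 is the concentration that inhibits growth by half. Definition used: TGI = concentration required for complete inhibition of growth.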

Common to all, as to assay: NCI anticancer screen, dose series, 48 h
The subject of assay [1] is 786-0 renal.
The test system of assay [2] is ACHN renal.
Assay [3] concerns COLO 205 colon.
Assay [4] deals with KM12 colon.
Assay [5] relates to NCI-H522 lung.
Assay [6] deals with OVCAR-5 ovarian.
Assay [7] has as its system RXF 393 renal.
In assay [8] the test system is SF-539 CNS.
In assay [9] the test system is SNB-75 CNS.

As to `Nc1nc(=S)[nH]c(C(=O)Nc2ccc(Cl)c(Cl)c2)c1-c1ccc(Cl)cc1`, the TGI in assay [1], in [2], in assay [3], in assay [4], in assay [5] and in assay [6] was more than 100 µM each time. For the same compound, the TGI in assay [7], in assay [8] and in [9] was more than 100 µM throughout.
Consider `COC1OC(C)C(O)CC1OS(=O)(=O)c1ccc(C)cc1` (configuration not stated), for which the TGI in assay [1], in [2], in assay [3], in assay [4], in [5] and in assay [6] was more than 100 µM in each case. In addition, the TGI in [7], in assay [8] and in assay [9] was more than 100 µM throughout.
In the case of `C1CCN(C2OC3C(COC3N3CCCCC3)OC2OC2CCO[C@@H]2N2CCCCC2)CC1` (some centres not stated), the TGI was more than 100 µM in [1]; more than 100 µM in assay [2]; more than 100 µM in [3]; more than 100 µM in assay [4]; 25.8 µM in [5]; more than 100 µM in assay [6]. The TGI in assay [7] is 27.5 µM; in [8], 46.8 µM; in assay [9], 46.2 µM.
For the compound `O=C1NC2CCC(C2)C1c1ccccc1` (configuration not stated), the TGI in assay [1], in assay [2], in [3], in assay [4], in [6] and in [7] was more than 100 µM throughout. Also, the TGI in assay [8] and in assay [9] was more than 100 µM throughout.
Turning to `CCC[CH2][Sn]([CH2]CCC)([O]C(=O)C(N)CSC)[O]C(=O)C(N)CSC` (configuration not stated), the GI50 in assay [1] was 8.14 µM; in [2] it was 12.3 µM; in assay [3] it was 6.5 µM; in [4] it was 13.3 µM; in assay [5], 1.34 µM; in assay [6], 15.7 µM. For the same compound, the GI50 in assay [7] is 6.83 µM; in [8] it was 13.3 µM; in assay [9] it was 10 µM. For the same compound, the TGI in [1] worked out at 21.8 µM; in assay [2] it was 30.2 µM; in [3], 19.9 µM; in [4], 29.4 µM; in [5], 3.39 µM; in assay [6] it was 35.6 µM. The TGI amounted to 18.8 µM in assay [7], 26.7 µM in assay [8] and 31.6 µM in [9].
As for `CC(=O)Nc1c(C)ccc2c1C(=O)c1ccccc1C2=O`, the TGI in assay [1], in assay [2], in assay [3], in assay [4], in assay [5] and in assay [6] was more than 100 µM in each case. Also, the TGI in assay [7], in assay [8] and in [9] was more than 100 µM in each case.
As to `CCOC(=O)NC(=O)c1cn(CCCOC(=O)CCCCCCCCCCC(=O)OCCCn2cc(C(=O)NC(=O)OCC)c(=O)n(C)c2=O)c(=O)n(C)c1=O`, the TGI in assay [1], in assay [2], in assay [3], in assay [4], in assay [5] and in assay [6] was more than 100 µM each time. Also, the TGI in assay [7], in assay [8] and in assay [9] was more than 100 µM in each case.
For `CCCCCCCCCCC(O)C1CCC(C(O)CCC(O)C2CCC(CCCCCCC[C@H](O)CC3=C[C@@H](C)OC3=O)O2)O1` (some centres not stated), the TGI in assay [1] was 53.9 µM; in assay [2] it was more than 100 µM; in assay [3] it was more than 100 µM; in assay [4], 68.1 µM; in assay [5], more than 100 µM; in assay [6], more than 100 µM. The TGI in assay [7] was 33.9 µM; in assay [8] it was more than 100 µM; in assay [9] it was 25.4 µM. The GI50 was more than 100 µM in assay [2] and 2.92 µM in assay [9].
Turning to `COc1ccc2cc3[n+](cc2c1OC)CCc1cc(O)c(O)cc1-3`, the TGI in [1], in [3], in assay [4], in [5], in assay [6] and in assay [7] was more than 100 µM throughout. In addition, the TGI in [8] and in assay [9] was more than 100 µM each time.
Turning to `O=c1[nH]c2c3ccccc3ccc2c2cc3c(cc12)OCO3`, the TGI in [1], in assay [2], in [3], in assay [4], in [5] and in assay [6] was more than 100 µM in each case. In addition, the TGI in assay [7], in assay [8] and in [9] was more than 100 µM throughout.
For `CC(=O)N/C(=C\c1cccc([N+](=O)[O-])c1)c1nc2c3c(ccc2[nH]1)C(=O)c1ccccc1C3=O`, the TGI is more than 100 µM in [1]; 47.9 µM in [2]; more than 100 µM in [3]; more than 100 µM in [4]; 99.8 µM in assay [5]; more than 100 µM in assay [6]. Moreover, the TGI in [7], in assay [8] and in [9] was more than 100 µM throughout.
Consider `Cc1cc(C)nc(NS(=O)(=O)c2ccc(Nc3c4ccc(Cl)cc4nc4c(C(=O)Nc5ccc(S(=O)(=O)N=C(N)N)cc5)cccc34)cc2)n1`, for which the TGI in [1], in assay [2], in [4], in assay [5], in assay [6] and in assay [7] was more than 100 µM in each case. Moreover, the TGI in [8] and in assay [9] was more than 100 µM in each case.
Take `CCN(CC)CCNC(=O)c1nn(C)c(=S)[nH]c1=S`: the TGI in assay [1], in assay [2], in [3], in assay [4], in assay [5] and in [6] was more than 100 µM in each case. Further, the TGI in assay [7], in [8] and in [9] was more than 100 µM in each case.
With `CCn1c(O)c(C=N)c(=O)n(CC)c1=O`, the TGI in assay [1], in assay [2], in [3], in assay [4], in [5] and in [6] was more than 100 µM each time. Also, the TGI in assay [7], in [8] and in [9] was more than 100 µM throughout.
Take `CCCCc1ccc(-n2c3nc(=O)n(C)c(=O)c-3nc3ccccc32)cc1`: the TGI is 32.1 µM in [1]; 23.1 µM in [2]; 13 µM in assay [3]; 26.6 µM in assay [4]; 20.2 µM in assay [5]; 32 µM in [6]. Further, the TGI in assay [7] was determined as 34.1 µM; in assay [8] it was 27.1 µM; in assay [9], 30.3 µM.
`COC(=O)C12C3C4C5C3(C#N)C1C5(C(=O)OC)C42C(=O)N(C(C)C)C(C)C` (configuration not stated): the TGI in [1] was more than 100 µM; in assay [2], more than 100 µM; in assay [3] it was more than 100 µM; in [4] it was more than 100 µM; in [5] it was more than 53.4 µM; in assay [6], more than 100 µM. The TGI in assay [7], in assay [8] and in assay [9] was more than 100 µM in each case.
As for `NC1CCCCC1N.O=S(=O)([O-])CCCN1CCOCC1.O=S(=O)([O-])CCCN1CCOCC1.[Pt+4]`, the GI50 in assay [1] was 5.7 µM; in assay [2] it was 8.17 µM; in assay [3], 10.7 µM; in [4], 35.1 µM; in [5], 4.64 µM; in assay [6] it was 26 µM. For the same compound, the GI50 is more than 49.4 µM in assay [7], 27.5 µM in assay [8] and more than 100 µM in assay [9]. The TGI in assay [1] was more than 100 µM; in assay [2], more than 100 µM; in [3] it was 42.8 µM; in [4] it was more than 100 µM; in assay [5] it was 20.6 µM; in assay [6], more than 100 µM. The TGI in assay [7], in assay [8] and in assay [9] was more than 100 µM throughout.
As for `C[C@]12CC[C@H](OCCC#N)CC1=CC[C@@H]1C2CC[C@]2(C)/C(=N/OCCC#N)CCC12` (some centres not stated), the TGI was more than 76.6 µM in assay [1]; more than 100 µM in assay [2]; more than 100 µM in [3]; more than 100 µM in assay [4]; more than 100 µM in assay [5]; more than 100 µM in assay [6]. In addition, the TGI in assay [7] is more than 73.9 µM; in assay [8], more than 100 µM; in [9] it was more than 78.9 µM.
For `COC(=O)C12CC(c3ccccc31)C1C(=O)OC(=O)C12` (configuration not stated), the TGI in [1], in assay [2], in assay [3], in [4], in [5] and in [6] was more than 100 µM in each case. The TGI in assay [7], in assay [8] and in assay [9] was more than 100 µM throughout.
Regarding `CCOC(=O)C1=C(Nc2ccc(Cl)cc2Cl)OC/C1=N\NS(=O)(=O)c1ccc(C)cc1`, the TGI in [1], in assay [2], in assay [3], in [4], in assay [5] and in [6] was more than 100 µM in each case. Besides, the TGI in assay [7], in [8] and in assay [9] was more than 100 µM in each case.
